pIC50: −log10 of the molar value.
Columns and labels:
Type in all cases: ADME
[1] = biological target: Cytochrome P450 2D6 (Homo sapiens, UniProt P10635); test: (§1) The compounds are incubated at 0, 0.15, 0.5, 1.5, 5, 15 and 50 uM concentration at 37 C, CYP2D6 is pooled in a ratio such that biotransformation of each probe substrate is specific for the CYP450. Substrates (at their Km) are also pooled within the same solution to create an enzyme-substrate stock and test compound is added. The final solvent concentration is 1% DMSO. After equilibration to 37 C, addition of NADPH initiates substrate biotransformation. The incubation is stopped at 10 min by methanol containing internal standard. The quenched samples are centrifuged to precipitate the protein and the supernatants are analyzed by LC-MS/MS to measure metabolite formation. IC50 of test compounds against CYP2D6 is calculated. The assay has been performed by Concept Life Sciences Ltd.
Chain of Cytochrome P450 2D6 (P10635 whole entry): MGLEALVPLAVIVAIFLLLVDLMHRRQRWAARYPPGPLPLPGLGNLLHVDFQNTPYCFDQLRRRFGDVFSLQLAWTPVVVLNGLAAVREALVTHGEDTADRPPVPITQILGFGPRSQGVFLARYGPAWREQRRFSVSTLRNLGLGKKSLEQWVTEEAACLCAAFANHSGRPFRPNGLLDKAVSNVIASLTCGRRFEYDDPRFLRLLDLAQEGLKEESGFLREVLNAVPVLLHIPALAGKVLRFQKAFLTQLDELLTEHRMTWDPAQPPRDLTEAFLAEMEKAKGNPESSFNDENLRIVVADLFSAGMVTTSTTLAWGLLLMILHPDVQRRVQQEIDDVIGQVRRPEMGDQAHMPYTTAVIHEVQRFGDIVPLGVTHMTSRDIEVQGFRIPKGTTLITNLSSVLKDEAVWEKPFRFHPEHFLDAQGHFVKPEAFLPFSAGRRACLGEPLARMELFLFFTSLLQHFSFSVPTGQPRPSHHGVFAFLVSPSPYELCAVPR

[2] = biological target: T1, Cytochrome P450 1A2 (Homo sapiens, UniProt P05177); test: as §1, with “CYP1A2” for “CYP2D6”
T1 sequence (P05177 whole entry): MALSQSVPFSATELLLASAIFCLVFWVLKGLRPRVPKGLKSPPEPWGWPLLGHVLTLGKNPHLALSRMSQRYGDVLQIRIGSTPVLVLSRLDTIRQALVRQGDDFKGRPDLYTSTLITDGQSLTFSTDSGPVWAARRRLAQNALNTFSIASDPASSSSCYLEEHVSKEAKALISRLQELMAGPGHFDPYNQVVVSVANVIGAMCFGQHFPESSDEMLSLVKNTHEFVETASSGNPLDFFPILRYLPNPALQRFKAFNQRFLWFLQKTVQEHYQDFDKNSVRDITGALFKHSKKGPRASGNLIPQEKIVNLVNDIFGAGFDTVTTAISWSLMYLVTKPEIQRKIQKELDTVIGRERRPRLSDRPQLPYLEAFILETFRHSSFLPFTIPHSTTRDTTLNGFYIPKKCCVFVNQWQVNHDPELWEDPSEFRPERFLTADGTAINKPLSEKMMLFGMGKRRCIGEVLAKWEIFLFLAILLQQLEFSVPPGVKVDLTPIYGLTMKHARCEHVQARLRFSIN

[3] = biological target: Cytochrome P450 2C19 (Homo sapiens, UniProt P33261); test: as §1, with “CYP2C19” for “CYP2D6”
Chain of Cytochrome P450 2C19 (P33261 whole entry): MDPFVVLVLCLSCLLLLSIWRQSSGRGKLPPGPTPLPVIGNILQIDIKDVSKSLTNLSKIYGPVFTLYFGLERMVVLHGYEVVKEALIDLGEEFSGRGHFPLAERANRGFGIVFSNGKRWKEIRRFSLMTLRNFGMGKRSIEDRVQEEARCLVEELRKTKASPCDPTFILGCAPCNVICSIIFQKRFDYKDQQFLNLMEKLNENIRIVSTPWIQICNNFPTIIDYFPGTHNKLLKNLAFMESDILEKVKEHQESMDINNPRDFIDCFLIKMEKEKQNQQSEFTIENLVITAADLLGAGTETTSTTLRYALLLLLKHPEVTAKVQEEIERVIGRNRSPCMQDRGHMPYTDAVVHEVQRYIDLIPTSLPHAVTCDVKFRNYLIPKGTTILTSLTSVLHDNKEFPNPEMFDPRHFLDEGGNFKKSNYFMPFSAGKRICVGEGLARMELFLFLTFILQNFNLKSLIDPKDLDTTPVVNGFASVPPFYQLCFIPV

[4] = biological target: Cytochrome P450 3A4 (Homo sapiens, UniProt P08684); test: as §1, with “CYP3A4” for “CYP2D6”
Chain of Cytochrome P450 3A4 (P08684 whole entry): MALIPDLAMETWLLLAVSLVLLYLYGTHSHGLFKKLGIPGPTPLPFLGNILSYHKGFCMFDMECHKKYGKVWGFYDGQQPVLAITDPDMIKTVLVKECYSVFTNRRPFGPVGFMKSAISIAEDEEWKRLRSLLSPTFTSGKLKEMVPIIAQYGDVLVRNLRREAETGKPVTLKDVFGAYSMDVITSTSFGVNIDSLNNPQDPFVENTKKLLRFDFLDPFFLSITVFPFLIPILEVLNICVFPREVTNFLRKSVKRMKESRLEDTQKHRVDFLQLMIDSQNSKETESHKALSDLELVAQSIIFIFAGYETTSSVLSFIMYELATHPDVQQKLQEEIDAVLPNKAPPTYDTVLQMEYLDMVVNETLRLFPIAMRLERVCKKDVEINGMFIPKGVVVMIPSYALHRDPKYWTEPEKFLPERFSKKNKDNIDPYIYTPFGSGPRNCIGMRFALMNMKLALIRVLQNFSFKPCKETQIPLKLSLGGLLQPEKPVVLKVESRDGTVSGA

[5] = biological target: Cytochrome P450 2C9 (Homo sapiens, UniProt P11712); test: as §1, with “CYP2C9” for “CYP2D6”
Chain of Cytochrome P450 2C9 (P11712 whole entry): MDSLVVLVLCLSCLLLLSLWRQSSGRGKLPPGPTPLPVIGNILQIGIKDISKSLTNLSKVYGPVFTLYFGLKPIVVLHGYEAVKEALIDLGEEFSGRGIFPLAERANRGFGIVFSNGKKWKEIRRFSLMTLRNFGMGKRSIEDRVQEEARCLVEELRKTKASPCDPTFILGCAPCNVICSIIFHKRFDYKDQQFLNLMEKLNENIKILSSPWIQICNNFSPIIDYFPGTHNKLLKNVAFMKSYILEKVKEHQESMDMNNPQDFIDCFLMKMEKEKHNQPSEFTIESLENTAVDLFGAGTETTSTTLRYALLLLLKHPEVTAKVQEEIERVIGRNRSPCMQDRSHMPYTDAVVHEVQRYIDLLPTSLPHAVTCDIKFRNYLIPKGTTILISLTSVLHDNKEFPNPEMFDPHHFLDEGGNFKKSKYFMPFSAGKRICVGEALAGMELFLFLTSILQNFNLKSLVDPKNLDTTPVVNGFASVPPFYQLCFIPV

COc1ccc([C@H](Cc2nnn[nH]2)NC(=O)c2ncnc3[nH]ccc23)cc1
pIC50 [1]: < 4.30 | pIC50 [2]: < 4.30 | pIC50 [3]: < 4.30 | pIC50 [4]: 4.60 | pIC50 [5]: 4.51

CC(C)[C@H](Nc1ncnc2[nH]c(-c3cnn(C)c3C#N)cc12)c1ccc2c(n1)OCCO2
pIC50 [1]: 4.56 | pIC50 [2]: 4.45 | pIC50 [3]: 4.77 | pIC50 [4]: 5.43 | pIC50 [5]: 5.23

CNCc1cc(-c2cc3c(N[C@@H](c4ccc5c(c4)S(=O)(=O)CCC5)C(C)C)ncnc3[nH]2)co1
pIC50 [1]: 5.04 | pIC50 [2]: 4.31 | pIC50 [3]: 4.65 | pIC50 [4]: 5.74 | pIC50 [5]: 5.28

Cn1ncc(-c2cc3c(N[C@@H](c4ccc5c(n4)OCCO5)C(C)(C)C)ncnc3[nH]2)c1C#N
pIC50 [1]: 4.69 | pIC50 [2]: < 4.30 | pIC50 [3]: < 4.30 | pIC50 [4]: 5.06 | pIC50 [5]: 4.37

CC(C)[C@H](Nc1ncnc2[nH]ccc12)c1ccc2c(c1)S(=O)(=O)CCC2
pIC50 [1]: < 4.30 | pIC50 [2]: < 4.30 | pIC50 [3]: 4.82 | pIC50 [4]: 5.49 | pIC50 [5]: 4.74

CC(C)[C@@H](Nc1ncnc2[nH]c(C(=O)N[C@@H]3CCN(C)C3)cc12)c1ccc2c(c1)S(=O)(=O)CCC2
pIC50 [1]: < 4.30 | pIC50 [2]: < 4.30 | pIC50 [3]: < 4.30 | pIC50 [4]: < 4.30 | pIC50 [5]: < 4.30

CNC(=O)Cn1cc(-c2cc3c(N[C@@H](c4ccc5c(c4)S(=O)(=O)CCC5)C(C)C)ncnc3[nH]2)cn1
pIC50 [1]: 4.32 | pIC50 [2]: 4.36 | pIC50 [3]: 4.46 | pIC50 [4]: 5.51 | pIC50 [5]: 4.54

C[C@H](C(=O)O)[C@@H](NC(=O)c1ncnc2[nH]ccc12)c1ccc(Br)cc1
pIC50 [1]: < 4.30 | pIC50 [2]: < 4.30 | pIC50 [3]: < 4.30 | pIC50 [4]: < 4.30 | pIC50 [5]: 5.29

CC(C)[C@@H](Nc1ncnc2[nH]c(-c3cnn(C)c3C#N)cc12)c1ccc2c(n1)OCCO2
pIC50 [1]: 4.64 | pIC50 [2]: 5.05 | pIC50 [3]: 5.02 | pIC50 [4]: 5.68 | pIC50 [5]: 5.36
